According to patent EP3046573B1, “AMYLIN ANALOGUES” (Zealand Pharma A/S, priority 2013, dated 2015):
Numbered stars: 1 amine (or outer) side, 2 acyl side, 3 side chain; on linkers, the order of the positions; unused ones are H or OH. Bridge positions count the residues as written; N and C are the ends. Square brackets hold non-standard residues; d marks the D form. Peptide text beside a SMILES is read from it. * marks the point of attachment. C20 diacid = O=C(O)CCCCCCCCCCCCCCCCCCC(=O)*; γGlu = O=C(O)[C@H](CCC(=O)[*:2])N[*:1]; NMeI = CC[C@H](C)[C@H](NC)C(=O)O; Sar = CNCC(=O)O

Tests used:
Format in all cases: in vivo
[1] = Pharmacokinetics of test compounds in mice; conditions: female, NMRI, mouse, plasma; for bioavailability: AUCinf (sc) / AUCinf (iv) x 100, 100 nmol/kg (Pramlintide 400 nmol/kg); for half-life: 100 nmol/kg (Pramlintide 400 nmol/kg)
Procedure: NMRI mice (supplier: Taconic; females with a body weight of approximately 25 g) were given either a single subcutaneous (sc) bolus or a single intravenous (iv) bolus of each peptide to be tested.
Following sc administration of test peptide (Compound 176, 1 or 18) (100 nmol/kg), blood samples were drawn 0.5, 2, 4, 8, 18, 40 and 56 hours post-dosing by eye bleeding. Following iv administration of Compound 176, 1 or 18 (100 nmol/kg), blood samples were drawn 0.08, 0.17, 0.5, 2, 8, 18 and 30 hours post-dosing by eye bleeding. The dosing vehicle used for each test peptide was a mannitol-containing histidine buffer (pH 7.0).
Pramlintide (400 nmol/kg) was also administered as a single sc bolus or as a single iv bolus to mice. Following sc administration, blood samples were drawn 5, 15, 20, 30, 60, 120, 180 and 240 minutes post-dosing by sublingual bleeding. Following iv administration, blood samples were drawn 5, 10, 15, 30, 60, 120, 180, and 240 minutes post-dosing by sublingual bleeding. The dosing vehicle used for Pramlintide was a mannitol-containing acetate buffer (pH 4.0).
Blood samples were taken from two mice at each time point, i.e. 14-16 mice were included for each compound. The mice were euthanized immediately after blood sampling by cervical dislocation. Plasma samples were analyzed after solid-phase extraction (SPE) by liquid chromatography mass spectrometry (LC-MS/MS). Mean plasma concentrations were used for calculation of the pharmacokinetic parameters using the non-compartmental approach in Phoenix WinNonlin 6.3.
Plasma terminal elimination half-life (t½) was determined as In(2)/λz, where λz is the magnitude of the slope of the log linear regression of the log concentration versus time profile during the terminal phase.
Bioavailability was determined as AUCinf (sc) / AUCinf (iv) x 100, where AUCinf is the area under the plasma concentration - time curve extrapolated to infinity (AUCinf = AUClast + Clast/λz, where Clast is the last observed plasma concentration).

[2] = Pharmacokinetic (PK) profiling in rats; conditions: male, Sprague Dawley, rat, plasma, single sc bolus, 100 nmol/kg (18, NN96), 20 nmol/kg (72, 76), 30 nmol/kg (73, 82, 118, 162, 166, 172)
Procedure: Sprague Dawley male rats were given a single subcutaneous (sc) bolus of each peptide to be tested at doses as specified below..
Study A: Following the administration of a 100 nmol/kg dose of a test peptide of the invention (Compound 18) and a comparison pramlintide analogue NN96 (see Example 5, above), respectively, blood samples were drawn from the tail vein at 0.5, 3, 8, 15, 36, 60 and 81 hours post-dosing. 4 rats were used (2 rats per compound). The rats were euthanized immediately after the last blood sampling by overdose of O2/CO2.
Study B: 20 nmol/kg doses of Compound 72 and Compound 76, respectively, of the invention were administered. Blood samples were drawn by sublingual bleeding prior to dosing and at 2, 6, 12, 24, 48, 72 and 96 hours after dosing. 4 rats were used (2 rats per compound). The rats were euthanized immediately after the last blood sampling by overdose of O2/CO2.
Study C: 30 nmol/kg doses of Compound 73, Compound 82 and Compound 118, respectively, of the invention were administered. Blood samples were drawn from the tail vein prior to dosing and at 24, 48, 72 and 96 hours after dosing. Blood samples were taken from two rats at each time point, and only 2 blood samples were drawn from each rat, i.e. 8 rats were used for each compound. The rats were euthanized immediately after the last blood sampling by concussion and cervical dislocation.
Study D: 30 nmol/kg doses of Compound 162, Compound 166 and Compound 172 were administered. Blood samples were drawn from the tail vein prior to dosing and at 24, 48, 72, 96 and 168 hours after dosing. Blood samples were taken from two rats at each time point, and only 2 blood samples were drawn from each rat, i.e. 10 rats were used for each compound. The rats were euthanized immediately after the last blood sampling by concussion and cervical dislocation.
The dosing vehicle used for each test peptide was a mannitol-containing histidine buffer (pH 7.0). Plasma samples were analyzed after precipitation with ethanol by liquid chromatography mass spectrometry (LC-MS/MS). Mean plasma concentrations were used for calculation of the pharmacokinetic parameters using the non-compartmental approach in Phoenix WinNonlin 6.3.
Plasma terminal elimination half-life (t½) was determined as In(2)/λz, where λz is the magnitude of the slope of the log linear regression of the log concentration versus time profile during the terminal phase. Apparent clearance (CL/F) was determined as dose/AUCinf (sc), where AUCinf is the area under the plasma concentration vs. time curve extrapolated to infinity (AUCinf = AUClast + Clast/λz, where Clast is the last observed plasma concentration).

[3] = tested on: male Zucker diabetic fatty (ZDF) rats; experiment: Efficacy testing: glycemic control in Zucker diabetic fatty rats
Procedure: Whole-blood glucose levels were determined on tail-vein blood samples by the Biosen (EKF Diagnostic, Germany) enzyme-based electrode method. Blood samples were analyzed for glycated hemoglobin (HbA1c) using a Cobas c111 analyzer (Roche Diagnostics, Mannheim, Germany). Plasma insulin levels were measured using a Meso Scale Discovery (MSD) system (Rockville, MD, USA). Liver fat content was determined by magnetic resonance (MR) scanning using an Echo systems MR scanner. Fat depots were measured by weighing of excised fat.
84 male Zucker diabetic fatty (ZDF) rats (9-10 weeks of age) were used in this study. The animals were housed in groups of n = 2. Stratification of the animals was based on non-fasting blood glucose (primary), changes in non-fasting blood glucose measured from the arrival of the animals until one week before the initiation of the study (secondary) and body weight (tertiary). The animals were further divided into two "teams" with a pair-fed group (group 2) allocated to team 2. Animals from group 2 were pair-fed in order to compare between the contribution made by reduced food intake and by drug-induced effects on glycemic control. The amount of food eaten by the animals treated with Compound 82 (30 nmol/kg, team 1) each day was determined, and the same amount was given to a vehicle-treated pair-fed group of animals the following day.
Rats were treated for 4 weeks with Compound 82 (3, 30 and 100 nmol/kg, sc, every (ev.) 5th day), Compound 18 (30 nmol/kg sc, every 5th day), or the GLP-1 analogue liraglutide (40 nmol/kg sc, twice daily (bid)).
The effects of the compounds on glycemic control were investigated by measurement of non-fasting and fasting blood glucose levels and HbA1c levels.
Statistical analyses were performed using GraphPad™ Prism version 5. The measured parameters were compared using one- way ANOVA followed by Dunnett's multiple comparison test. Comparison between the pair-fed vehicle-treated group and the Compound 82 (30 nmol/kg) group was done using Student's two-tailed and unpaired t-test. Differences were considered statistically significant at p < 0.05.

[4] = single iv bolus, read-out: t½ (hours) iv (converted)
[5] = single sc bolus, read-out: t½ (hours) sc (converted)

SMILES | bioavailability [1] [%] | half-life [1, 4] [h] | half-life [1, 5] [h] | CL/F ([2]; apparent clearance) [mL/h/kg] | half-life ([2]; terminal elimination half-life, read-out: t½ (converted)) [h] | terminal HbA1c levels ([3]; 30 nmol/kg sc every 5th day, 4 weeks, vehicle 8.7 ± 0.2) [%] | non-fasting blood glucose levels on day 13 and on day 27 ([3]; compared to the vehicle treated rats, P < 0.001) | fasting blood glucose levels ([3]; terminal, Compound 82 3, 30, and 100 nmol/kg, Compound 18 30 nmol/kg, P < 0.001 vs. vehicle)
CC[C@H](C)[C@@H](C(=O)N[C@@H](CC(C)C)C(=O)N[C@@H](CO)C(=O)N[C@@H](CO)C(=O)N[C@H](C(=O)N[C@@H](CC(N)=O)C(=O)N[C@H](C(=O)NCC(=O)N[C@@H](CO)C(=O)N[C@@H](CC(N)=O)C(=O)N[C@H](C(=O)N1CCC[C@H]1C(N)=O)[C@@H](C)O)C(C)C)[C@@H](C)O)N(C)C(=O)[C@H](C)NC(=O)CN(C)C(=O)[C@H](Cc1ccccc1)NC(=O)[C@H](CC(N)=O)NC(=O)[C@H](CC(N)=O)NC(=O)[C@H](CO)NC(=O)[C@H](CO)NC(=O)[C@H](Cc1c[nH]cn1)NC(=O)[C@H](Cc1c[nH]cn1)NC(=O)[C@H](CC(C)C)NC(=O)[C@H](Cc1ccccc1)NC(=O)[C@H](CCC(=O)O)NC(=O)[C@H](C)NC(=O)[C@H](CC(C)C)NC(=O)[C@H](CCCNC(=N)N)NC(=O)[C@H](CCC(N)=O)NC(=O)[C@@H](NC(=O)[C@H](C)NC(=O)[C@@H]1CSSC[C@H](NC(=O)[C@H](CCCNC(=N)N)NC(=O)CC[C@H](NC(=O)CCCCCCCCCCCCCCCCCCC(=O)O)C(=O)O)C(=O)N[C@@H](CC(N)=O)C(=O)N[C@@H]([C@@H](C)O)C(=O)N[C@@H](C)C(=O)N[C@@H]([C@@H](C)O)C(=O)N1)[C@@H](C)O [Compound 1, [19CD]-isoGlu-RC()NTATC()ATQRLAEFLHHSSNNF-Gly(Me)-A-Ile(Me)-LSSTNVGSNTP-NH2] ({C20 diacid-γGlu}-RCNTATCATQRLAEFLHHSSNNF[Sar]A[NMeI]LSSTNVGSNTP-NH2; disulfide 2-7) | 77 | 32.9 | 34.6 | – | – | – | – | –
CC[C@H](C)[C@@H](C(=O)N[C@@H](CC(C)C)C(=O)N[C@@H](CO)C(=O)N[C@@H](CO)C(=O)N[C@H](C(=O)N[C@@H](CC(N)=O)C(=O)N[C@H](C(=O)NCC(=O)N[C@@H](CO)C(=O)N[C@@H](CC(N)=O)C(=O)N[C@H](C(=O)N1CCC[C@H]1C(N)=O)[C@@H](C)O)C(C)C)[C@@H](C)O)N(C)C(=O)[C@H](C)NC(=O)CN(C)C(=O)[C@H](Cc1ccccc1)NC(=O)[C@H](CC(N)=O)NC(=O)[C@H](CC(N)=O)NC(=O)[C@H](CO)NC(=O)[C@H](CO)NC(=O)[C@H](CCCNC(=N)N)NC(=O)[C@H](Cc1c[nH]cn1)NC(=O)[C@H](CC(C)C)NC(=O)[C@H](Cc1ccccc1)NC(=O)[C@H](CCC(=O)O)NC(=O)[C@H](C)NC(=O)[C@H](CC(C)C)NC(=O)[C@H](CCCNC(=N)N)NC(=O)[C@H](CCC(N)=O)NC(=O)[C@@H](NC(=O)[C@H](C)NC(=O)[C@@H]1CSSC[C@H](NC(=O)[C@H](CCCNC(=N)N)NC(=O)CC[C@H](NC(=O)CCCCCCCCCCCCCCCCCCC(=O)O)C(=O)O)C(=O)N[C@@H](CC(N)=O)C(=O)N[C@@H]([C@@H](C)O)C(=O)N[C@@H](C)C(=O)N[C@@H]([C@@H](C)O)C(=O)N1)[C@@H](C)O [Compound 18, [19CD]-isoGlu-RC()NTATC()ATQRLAEFLHRSSNNF-Gly(Me)-A-Ile(Me)-LSSTNVGSNTP-NH2] ({C20 diacid-γGlu}-RCNTATCATQRLAEFLHRSSNNF[Sar]A[NMeI]LSSTNVGSNTP-NH2; disulfide 2-7) | 79 | 20.8 | 22.8 | 3.48 | 37.6 | 5.4 ± 0.1 | significantly lower | significantly decreased
CC[C@H](C)[C@@H](C(=O)N[C@@H](CC(C)C)C(=O)N1CCC[C@H]1C(=O)N1CCC[C@H]1C(=O)N[C@H](C(=O)N[C@@H](CC(N)=O)C(=O)N[C@H](C(=O)NCC(=O)N[C@@H](CO)C(=O)N[C@@H](CC(N)=O)C(=O)N[C@H](C(=O)N1CCC[C@H]1C(N)=O)[C@@H](C)O)C(C)C)[C@@H](C)O)N(C)C(=O)CN(C)C(=O)[C@H](Cc1ccccc1)NC(=O)[C@H](CC(N)=O)NC(=O)[C@H](CC(N)=O)NC(=O)[C@H](CO)NC(=O)[C@H](CO)NC(=O)[C@H](Cc1c[nH]cn1)NC(=O)[C@H](Cc1c[nH]cn1)NC(=O)[C@H](CC(C)C)NC(=O)[C@H](Cc1ccccc1)NC(=O)[C@H](CCC(=O)O)NC(=O)[C@H](C)NC(=O)[C@H](CC(C)C)NC(=O)[C@H](CCCNC(=N)N)NC(=O)[C@H](CCC(N)=O)NC(=O)[C@@H](NC(=O)[C@H](C)NC(=O)[C@@H]1CSSC[C@H](NC(=O)[C@H](CCCNC(=N)N)NC(=O)CC[C@H](NC(=O)CCCCCCCCCCCCCCCCCCC(=O)O)C(=O)O)C(=O)N[C@@H](CC(N)=O)C(=O)N[C@@H]([C@@H](C)O)C(=O)N[C@@H](C)C(=O)N[C@@H]([C@@H](C)O)C(=O)N1)[C@@H](C)O [Compound 176, [19CD]-isoGlu-RC()NTATC()ATQRLAEFLHHSSNNF-Gly(Me)-Ile(Me)-LPPTNVGSNTP-NH2] ({C20 diacid-γGlu}-RCNTATCATQRLAEFLHHSSNNF[Sar][NMeI]LPPTNVGSNTP-NH2; disulfide 2-7) | 81 | 24.4 | 23.8 | – | – | – | – | –
